Results: patent publication US7671045B2, “17-phosphorous steroid derivatives useful as progesterone receptor modulators” (Janssen Pharmaceutica N.V., priority 2006, dated 2010)
Where two headings read alike, the source gives them in different places.

Experiments:
[1] = system: A549 Human lung carcinoma cells; assay: Transient transfection and Steady Glo luciferase assay in A549 cells with dexamethasone challenge; format: cell-based
Procedure: Transient Transfection and Steady Glo Luciferase Assay
A549 Human lung carcinoma cells were grown in F-12K Nutrient Mixture containing 10% (v/v) fetal bovine serum (FBS; Invitrogen), 2 mM glutamine and 0.15% […] (Invitrogen)
A549 cells were split 1 to 3 in 175 cm tissue culture flask. The cells were incubated at 37° C. in CO2 incubator until the cells were 95% confluent (typically 24-30 hours).
The following solutions were prepared in sterile tubes: (a) Solution A: 1.5 μg/ml of DNA in 8.5 ml OPTI-MEM I Reduced Serum Medium. (GIBCO cat# 31985) and (b) Solution B: 6 μl/ml of DMRIE-C Reagent into […] OPTI-MEM I. The two solutions were combined and mixed gently, then incubated at room temperature for 40 minutes.
The A549 cells prepared above were washed with […] of OPTI-MEM I. The medium was removed and 17 ml of the lipid-DNA complex solution was overlayed onto cells. The cells ere then incubated for 16 h at 37° C. in CO2 incubator. The DNA-containing medium was removed and 30 ml of growth medium was added. (5% Charcoal treated FBS) After 5-6 h, the cells were seeded in a 96 well plate and the cells incubated overnight at 37° C. in CO2 incubator.
To each well was then added 5 μl of test compounds and the cells incubated at 37° C. for 10 min. 5 μL of dexamathasone (CAS [50-02-2]), a glucocorticoid agonist, solution was then added to each well for challenger and the cells incubated at 37° C. in CO2 incubator for 24 h. 100 μl of Luc-assay buffer was then added into each cell well and the cells incubated for 30 min at room temperature. A 150 μL sample from each well was then transferred into a DYNEX Microlitel plate and read on Top-counter.

[2] = system: T47D human breast cancer cells; assay: Alkaline phosphatase assay in human breast cancer cell line T47D; format: cell-based
Procedure: Alkaline Phosphatase Assay in Human Breast Cancer Cell Line T47D
T47D human breast cancer cells were grown in RPMI medium without phenol red (Invitrogen) containing 10% (v/v) heat-inactivated fetal bovine serum (FBS; Hyclone), 1% (v/v) penicillin-streptomycin (Invitrogen), 1% (w/v) glutamine (Invitrogen), and […] insulin (Sigma). Incubation conditions were 37° C. in a humidified 5% (v/v) carbon dioxide environment.
The cells were plated in 96-well tissue culture plates at 10,000 cells per well in assay medium [RPMI medium without phenol red (Invitrogen) containing 5% (v/v) charcoal-treated FBS (Hyclone) and 1% (v/v) penicillin-streptomycin (Invitrogen)]. Two days later, the medium was decanted and test compound or control were added at a final concentration of 0.1% (v/v) dimethyl sulfoxide in fresh assay medium. Twenty-four hours later, an alkaline phosphatase assay was performed using a SEAP kit (BD Biosciences Clontech, Palo Alto, Calif.). Briefly, the medium was decanted and the cells were fixed for 30 minutes at room temperature with 5% (v/v) formalin (Sigma). The cells were washed once with room temperature Hank's buffered saline solution (Invitrogen). Equal volumes (0.05 mL) of 1× Dilution Buffer, Assay Buffer and 1:20 substrate/enhancer mixture were then added. After 1 hour incubation at room temperature in the dark, the lysate was transferred to a white 96-well plate (Dynex) and luminescence was read using a LuminoSkan Ascent (Thermo Electron, Woburn, Mass.).

[3] = A549, 24 h, read-out: A549 IC50 (nM)
[4] = T47D, 24 h, read-out: T47D IC50 (nM)
[5] = transfected A549 cells, luciferase readout, challenged with dexamethasone (glucocorticoid agonist), 24 h, read-out: A549 IC50
[6] = T47D cells, alkaline phosphatase readout, 24 h with test compound, read-out: T47D IC50

CCOP(=O)(OCC)c1ccc([C@H]2C[C@]3(C)C(=O)CC[C@H]3[C@@H]3CCC4=CC(=O)CCC4=C32)cc1 [Compound 1]
IC50 [1, 3]: 254 nM | IC50 [2, 4]: > 1000 nM

C[C@]12C[C@H](c3ccc(P(C)(C)=O)cc3)C3=C4CCC(=O)C=C4CC[C@H]3[C@@H]1CCC2=O [Compound 2]
IC50 [1, 5]: > 710 nM | IC50 [2, 6]: > 1000 nM

C=C1CCO[C@]12CC[C@H]1[C@@H]3CCC4=CC(=O)CCC4=C3[C@@H](c3ccc(P(=O)(OCC)OCC)cc3)C[C@@]12C [Compound 3]
IC50 [1, 3]: 238 nM | IC50 [2, 4]: 12 nM

C=C1CCO[C@]12CC[C@H]1[C@@H]3CCC4=CC(=O)CCC4=C3[C@@H](c3ccc(P(C)(C)=O)cc3)C[C@@]12C [Compound 4]
IC50 [1, 5]: 66.2 nM | IC50 [2, 6]: 3 nM

C[C@]12C[C@H](c3ccc(P(C)(C)=O)cc3)C3=C4CCC(=O)C=C4CC[C@H]3[C@@H]1CC[C@@]2(O)CC#N [Compound 6]
IC50 [1, 5]: > 3000 nM | IC50 [2, 6]: > 1000 nM

C[C@]12C[C@H](c3ccc(P(C)(C)=O)cc3)C3=C4CCC(=O)C=C4CC[C@H]3[C@@H]1CC[C@@]2(O)C(F)(F)C(F)(F)F [Compound 7]
IC50 [1, 5]: 624 nM | IC50 [2, 6]: 8.4 nM

CCOP(=O)(OCC)c1ccc([C@H]2C[C@@]3(C)[C@@H](CC[C@@]3(O)C(F)(F)C(F)(F)F)[C@@H]3CCC4=CC(=O)CCC4=C32)cc1 [Compound 8]
IC50 [1, 3]: 168 nM | IC50 [2, 4]: 170 nM

C=CC[C@]1(O)CC[C@H]2[C@@H]3CCC4=CC(=O)CCC4=C3[C@@H](c3ccc(P(C)(C)=O)cc3)C[C@@]21C [Compound 9]
IC50 [1, 5]: > 1000 nM | IC50 [2, 6]: 205 nM

C=C(C)[C@]1(O)CC[C@H]2[C@@H]3CCC4=CC(=O)CCC4=C3[C@@H](c3ccc(P(C)(C)=O)cc3)C[C@@]21C [Compound 10]
IC50 [1, 5]: > 3000 nM | IC50 [2, 6]: 18.3 nM

C=C(C)[C@]1(O)CC[C@H]2[C@@H]3CCC4=CC(=O)CCC4=C3[C@@H](c3ccc(P(=O)(OCC)OCC)cc3)C[C@@]21C [Compound 11]
IC50 [1, 3]: 66.3 nM | IC50 [2, 4]: 51.3 nM

C=CC[C@]1(O)CC[C@H]2[C@@H]3CCC4=CC(=O)CCC4=C3[C@@H](c3ccc(P(=O)(OCC)OCC)cc3)C[C@@]21C [Compound 13]
IC50 [1, 3]: 30.2 nM | IC50 [2, 4]: 170 nM

COP(=O)(OC)c1ccc([C@H]2C[C@]3(C)C(=O)CC[C@H]3[C@@H]3CCC4=CC(=O)CCC4=C32)cc1 [Compound 15]
IC50 [1, 3]: > 3000 nM | IC50 [2, 4]: 8.8 nM

C=C1CCO[C@]12CC[C@H]1[C@@H]3CCC4=CC(=O)CCC4=C3[C@@H](c3ccc(P(=O)(OC)OC)cc3)C[C@@]12C [Compound 16]
IC50 [1, 3]: 230 nM | IC50 [2, 4]: 8.3 nM

C=C1CCO[C@]12CC[C@H]1[C@@H]3CCC4=CC(=O)CCC4=C3[C@@H](c3ccc(P(=O)(O)OC)cc3)C[C@@]12C [Compound 17]
IC50 [1, 3]: > 3000 nM | IC50 [2, 4]: > 1000 nM

CCOP(C)(=O)c1ccc([C@H]2C[C@]3(C)C(=O)CC[C@H]3[C@@H]3CCC4=CC(=O)CCC4=C32)cc1 (stereo partly shown) [Compound 21]
IC50 [1, 3]: > 3000 nM

C=C1CCO[C@]12CC[C@H]1[C@@H]3CCC4=CC(=O)CCC4=C3[C@@H](c3ccc(P(C)(=O)O)cc3)C[C@@]12C [Compound 22, 19,24-Dinorchola-4,9,20-trien-3-one, 1723-epoxy-11-[4-(hydroxy-methyl-phosphinoyl)phenyl]-(11β,17α)-(9Cl)]
IC50 [1, 5]: > 3000 nM | IC50 [2, 6]: > 1000 nM

C=C1CCO[C@]12CC[C@H]1[C@@H]3CCC4=CC(=O)CCC4=C3[C@@H](c3ccc(P4(=O)OCC(C)(C)CO4)cc3)C[C@@]12C [Compound 23, 19,24-Dinorchola-4,9,20-trien-3-one, 17,23-epoxy-11-[4-(5,5-Dimethyl-2-oxo-2λ^5-[1,3,2]dioxaphosphinan-2-yl)-phenyl]-, (11β,17α)-(9Cl)]
IC50 [1, 5]: 64.3 nM | IC50 [2, 6]: 28.7 nM

C=CC[C@]1(O)CC[C@H]2[C@@H]3CCC4=CC(=O)CCC4=C3[C@@H](c3ccc(P(=O)(c4ccccc4)c4ccccc4)cc3)C[C@@]21C [Compound 24]
IC50 [1, 5]: 48.2 nM | IC50 [2, 6]: 762 nM

CCOP(=O)(OCC)c1ccc([C@H]2C[C@@]3(C)[C@@H](CC[C@@]3(O)C#Cc3ccccc3)[C@@H]3CCC4=CC(=O)CCC4=C32)cc1 [Compound 25]
IC50 [1, 3]: 83.8 nM | IC50 [2, 4]: 38.2 nM

CC#C[C@]1(O)CC[C@H]2[C@@H]3CCC4=CC(=O)CCC4=C3[C@@H](c3ccc(P(=O)(OCC)OCC)cc3)C[C@@]21C [Compound 26]
IC50 [1, 3]: 41.5 nM | IC50 [2, 4]: 125 nM

CC#C[C@]1(O)CC[C@H]2[C@@H]3CCC4=CC(=O)CCC4=C3[C@@H](c3ccc(P(=O)(c4ccccc4)c4ccccc4)cc3)C[C@@]21C [Compound 27]
IC50 [1, 5]: 16.6 nM | IC50 [2, 6]: 381 nM

C/C=C/C[C@]1(O)CC[C@H]2[C@@H]3CCC4=CC(=O)CCC4=C3[C@@H](c3ccc(P(=O)(c4ccccc4)c4ccccc4)cc3)C[C@@]21C [Compound 28]
IC50 [1, 5]: 129 nM | IC50 [2, 6]: 660 nM

C/C=C/C[C@]1(O)CC[C@H]2[C@@H]3CCC4=CC(=O)CCC4=C3[C@@H](c3ccc(P(=O)(OCC)OCC)cc3)C[C@@]21C [Compound 29]
IC50 [1, 3]: 225 nM | IC50 [2, 4]: 160 nM

C[C@]12C[C@H](c3ccc(P(=O)(c4ccccc4)c4ccccc4)cc3)C3=C4CCC(=O)C=C4CC[C@H]3[C@@H]1CC[C@@]2(O)C#Cc1ccccc1 [Compound 30]
IC50 [1, 5]: 93 nM | IC50 [2, 6]: 275 nM

COP(=O)(OC)c1ccc([C@H]2C[C@@]3(C)[C@@H](CC[C@@]3(O)C#Cc3ccccc3)[C@@H]3CCC4=CC(=O)CCC4=C32)cc1 [Compound 31]
IC50 [1, 3]: 130 nM | IC50 [2, 4]: 7.47 nM

C[C@]12C[C@H](c3ccc(P(=O)(OCC(F)(F)F)OCC(F)(F)F)cc3)C3=C4CCC(=O)C=C4CC[C@H]3[C@@H]1CCC2=O [Compound 32]
IC50 [1, 3]: 217 nM | IC50 [2, 4]: > 1000 nM

C[C@]12C[C@H](c3ccc(P(=O)(Oc4ccccc4)Oc4ccccc4)cc3)C3=C4CCC(=O)C=C4CC[C@H]3[C@@H]1CCC2=O [Compound 33]
IC50 [1, 5]: 217 nM | IC50 [2, 6]: > 1000 nM

C[C@]12C[C@H](c3ccc(P(=O)(OCc4ccccc4)OCc4ccccc4)cc3)C3=C4CCC(=O)C=C4CC[C@H]3[C@@H]1CCC2=O [Compound 35]
IC50 [1, 5]: 948 nM | IC50 [2, 6]: 980 nM

C=C1CCO[C@]12CC[C@H]1[C@@H]3CCC4=CC(=O)CCC4=C3[C@@H](c3ccc(P(=O)(c4ccccc4)c4ccccc4)cc3)C[C@@]12C [Compound 36, 19,24-Dinorchola-4,9,20-trien-3-one, 17,23-epoxy-11-[4-(diphenyl-phosphinoyl)-phenyl]-, (11β,17α)-(9Cl)]
IC50 [1, 5]: 163 nM | IC50 [2, 6]: 45 nM

C=C1CCO[C@]12CC[C@H]1[C@@H]3CCC4=CC(=O)CCC4=C3[C@@H](c3ccc(P(=O)(Oc4ccccc4)Oc4ccccc4)cc3)C[C@@]12C [Compound 37]
IC50 [1, 5]: 34.3 nM | IC50 [2, 6]: 3.3 nM

C=C1CCO[C@]12CC[C@H]1[C@@H]3CCC4=CC(=O)CCC4=C3[C@@H](c3ccc(P(=O)(OCC(F)(F)F)OCC(F)(F)F)cc3)C[C@@]12C [Compound 38, 19,24-Dinorchola-4,9,20-trien-3-one, 17,23-epoxy-11-[4-[Bis-(2,2,2-trifluoro-ethoxy)-phosphoryl]-phenyl]-, (11β,17α)-(9Cl)]
IC50 [1, 5]: 141 nM | IC50 [2, 6]: 29.5 nM

C=C1CCO[C@]12CC[C@H]1[C@@H]3CCC4=CC(=O)CCC4=C3[C@@H](c3ccc(P(=O)(c4ccc(Cl)cc4)c4ccc(Cl)cc4)cc3)C[C@@]12C [Compound 39, 19,24-Dinorchola-4,9,20-trien-3-one, 17,23-epoxy-11-[4-[Bis-(4-chloro-phenyl)-phosphinoyl]-phenyl]-, (11β,17α)-(9Cl)]
IC50 [1, 5]: 143 nM | IC50 [2, 6]: 20 nM

CCOP(=O)(C#C[C@]1(O)CC[C@H]2[C@@H]3CCC4=CC(=O)CCC4=C3[C@@H](c3ccc(N(C)C)cc3)C[C@@]21C)OCC [Compound 101]
IC50 [1, 3]: > 100 nM | IC50 [2, 4]: 1.3 nM

CN(C)c1ccc([C@H]2C[C@@]3(C)[C@@H](CC[C@@]3(O)C#CP(C)(C)=O)[C@@H]3CCC4=CC(=O)CCC4=C32)cc1 [Compound 102]
IC50 [1, 5]: 70.4 nM | IC50 [2, 6]: 7.3 nM
